In patent US7776848B2, “Spirocyclic cyclohexane compounds” (Gruenenthal GmbH, priority 2004, dated 2010):
Structures can show the parent of a compound that is named as a salt.

Assays:
[1] = biological target: T1, 5HT uptake (serotonin reuptake), synaptosomes from hypothalamus of male rat brains (Rattus norvegicus, UniProt P31652); assay: Serotonin reuptake inhibition (5HT uptake inhibition) in rat brain synaptosomes; format: biochemical
T1 construct: synaptosomes are freshly isolated from areas of rat brain; from tissue; host or cells: synaptosomes (P2 fraction) from hypothalamus of male rat brains
T1 sequence (P31652 whole entry): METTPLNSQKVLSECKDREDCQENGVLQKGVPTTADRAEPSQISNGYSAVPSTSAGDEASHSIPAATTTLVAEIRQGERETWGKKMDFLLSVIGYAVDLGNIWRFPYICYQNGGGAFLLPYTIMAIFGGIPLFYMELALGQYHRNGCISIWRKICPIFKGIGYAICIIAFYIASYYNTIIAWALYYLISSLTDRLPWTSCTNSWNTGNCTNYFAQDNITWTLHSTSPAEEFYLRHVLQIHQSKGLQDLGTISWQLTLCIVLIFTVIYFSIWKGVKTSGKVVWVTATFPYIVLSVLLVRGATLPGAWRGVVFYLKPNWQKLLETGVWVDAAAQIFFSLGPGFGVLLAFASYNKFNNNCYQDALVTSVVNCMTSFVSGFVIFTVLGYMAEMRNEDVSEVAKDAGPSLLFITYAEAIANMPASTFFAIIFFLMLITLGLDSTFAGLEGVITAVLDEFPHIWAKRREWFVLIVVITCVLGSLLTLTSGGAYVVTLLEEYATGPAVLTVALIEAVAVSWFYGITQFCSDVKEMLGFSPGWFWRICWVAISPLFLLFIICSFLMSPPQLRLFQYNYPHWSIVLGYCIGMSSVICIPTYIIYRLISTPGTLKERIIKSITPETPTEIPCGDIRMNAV
Procedure: Biological Testing a) Studies of Serotonin Reuptake Inhibition (5HT Uptake Inhibition)
In order to be able to carry out these in vitro studies, synaptosomes are freshly isolated from areas of rat brain. A so-called “P2” fraction is used in each case, which is prepared according to the procedure of Gray and Whittaker (E. G. Gray and V. P. Whittaker (1962) J. Anat. 76, 79-88). For 5HT uptake, these vesicular particles are isolated from the hypothalamus of male rat brains. A detailed description of the method can be found in the literature (M. Ch. Frink, H.-H. Hennies, W. Englberger, M. Haurand and B. Wilffert (1996) Arzneim.-Forsch./Drug Res. 46 (III), 11, 1029-1036).

[2] = biological target: T2, NA uptake (noradrenaline reuptake), synaptosomes from hypothalamus of male rat brains (Rattus norvegicus, UniProt Q63380); assay: Noradrenaline reuptake inhibition (NA uptake inhibition) in rat brain synaptosomes; format: biochemical
T2 construct: synaptosomes are freshly isolated from areas of rat brain; from tissue; host or cells: synaptosomes (P2 fraction) from hypothalamus of male rat brains
T2 sequence (Q63380 1-617): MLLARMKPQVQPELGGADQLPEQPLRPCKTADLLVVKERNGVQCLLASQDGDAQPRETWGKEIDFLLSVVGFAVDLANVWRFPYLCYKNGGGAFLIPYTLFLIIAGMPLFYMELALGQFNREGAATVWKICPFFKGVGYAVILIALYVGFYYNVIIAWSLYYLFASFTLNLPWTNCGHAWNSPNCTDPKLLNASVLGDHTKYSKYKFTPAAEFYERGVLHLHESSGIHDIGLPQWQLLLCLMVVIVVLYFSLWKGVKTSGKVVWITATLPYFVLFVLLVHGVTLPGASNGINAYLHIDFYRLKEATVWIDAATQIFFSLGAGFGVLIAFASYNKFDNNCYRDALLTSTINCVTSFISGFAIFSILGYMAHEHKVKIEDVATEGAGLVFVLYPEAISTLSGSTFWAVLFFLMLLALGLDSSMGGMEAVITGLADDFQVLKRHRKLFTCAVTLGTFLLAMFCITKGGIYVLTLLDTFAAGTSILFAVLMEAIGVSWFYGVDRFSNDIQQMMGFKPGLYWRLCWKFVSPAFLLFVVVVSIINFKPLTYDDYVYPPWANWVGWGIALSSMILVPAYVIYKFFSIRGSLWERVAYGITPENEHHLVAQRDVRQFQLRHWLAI
Procedure: b) Studies of Noradrenaline Reuptake Inhibition (NA Uptake Inhibition)
In order to be able to carry out these in vitro studies, synaptosomes are freshly isolated from areas of rat brain. A so-called “P2” fraction is used in each case, which is prepared according to the procedure of Gray and Whittaker (E. G. Gray and V. P. Whittaker (1962) J. Anat. 76, 79-88). For NA uptake, these vesicular particles are isolated from the hypothalamus of male rat brains. A detailed description of the method can be found in the literature (M. Ch. Frink, H.-H. Hennies, W. Englberger, M. Haurand and B. Wilffert (1996) Arzneim.-Forsch./Drug Res. 46 (III), 11, 1029-1036).

Row | SMILES | inhibition at 10 µM [1] [%] | inhibition at 10 µM [2] [%]
1 | CN(C)CC1CC2(CCC1(O)c1cccc(F)c1)NCCc1c2[nH]c2ccccc12 (centres unmarked) [Example 3, 1,1-(2-(Dimethylaminomethyl)-3-hydroxy-3-(3-fluorophenyl)-pentamethylene)-3,4-dihydro-1H-2,9-diazafluorene citrate] | 75 | 48
2 | Cc1ccccc1C1(O)CCC2(CC1CN(C)C)NCCc1c2[nH]c2ccccc12 (centres unmarked) [Example 6, 1,1-(2-(Dimethylaminomethyl)-3-hydroxy-3-(2-methylphenyl)-pentamethylene)-3,4-dihydro-1H-2,9-diazafluorene citrate] | 69 | –
3 | CN(C)CC1CC2(CCC1(O)c1ccccc1)OCCc1c2sc2ccccc12 (centres unmarked) [Example 7, 1,1-(2-(Dimethylaminomethyl)-3-hydroxy-3-phenyl-pentamethylene)-1,3,4,9-tetrahydro-pyrano[3,4-b]benzothiophene citrate] | 88 | 59
4 | CN(C)CC1CC2(CCC1(O)c1ccccc1)SCCc1c2[nH]c2ccccc12 (centres unmarked) [Example 9, 1,1-(2-(Dimethylaminomethyl)-3-hydroxy-3-phenyl-pentamethylene)-1,3,4,9-tetrahydro-2-thia-9-aza-fluorene citrate] | 81 | –
5 | CN(C)CC1CC2(CCC1(O)c1cccc(F)c1)OCCc1c2sc2ccccc12 (centres unmarked) [Example 10, 1,1-(2-(Dimethylaminomethyl)-3-hydroxy-3-(3-fluorophenyl)-pentamethylene)-1,3,4,9-tetrahydro-pyrano[3,4-b]benzothiophene citrate] | 88 | 55
6 | Cc1ccccc1C1(O)CCC2(CC1CN(C)C)OCCc1c2sc2ccccc12 (centres unmarked) [Example 11, 1,1-(2-(Dimethylaminomethyl)-3-hydroxy-3-(2-methylphenyl)-pentamethylene)-1,3,4,9-tetrahydro-pyrano[3,4-b]benzothiophene citrate] | 85 | 43
7 | CN(C)CC1CC2(CCC1(O)c1ccc(C(F)(F)F)cc1)OCCc1c2oc2ccccc12 (centres unmarked) [Example 13, 1,1-(2-(Dimethylaminomethyl)-3-hydroxy-3-(4-trifluoromethylphenyl)-pentamethylene)-1,3,4,9-tetrahydro-pyrano[3,4-b]benzofuran citrate] | 60 | 46
8 | CN(C)CC1CC2(CCC1(O)c1cccc(F)c1)SCCc1c2[nH]c2ccccc12 (centres unmarked) [Example 14, 1,1-(2-(Dimethylaminomethyl)-3-hydroxy-3-(3-fluorophenyl)-pentamethylene)-1,3,4,9-tetrahydro-2-thia-9-aza-fluorene citrate] | 61 | 46
9 | CN(C)CC1CC2(CCC1(O)c1ccc(C(F)(F)F)cc1)NCCc1c2[nH]c2ccccc12 (centres unmarked) [Example 15, 1,1-(2-(Dimethylaminomethyl)-3-hydroxy-3-(4-trifluoromethylphenyl)-pentamethylene)-3,4-dihydro-1H-2,9-diazafluorene dicitrate] | 83 | 76
10 | CN(C)CC1CC2(CCC1(O)c1cccc(F)c1)NCCc1c2[nH]c2cc(F)ccc12 (centres unmarked) [Example 16, 1,1-(2-(Dimethylaminomethyl)-3-hydroxy-3-(3-fluorophenyl)-pentamethylene)-7-fluoro-3,4-dihydro-1H-2,9-diazafluorene sesquicitrate] | 72 | –
11 | COc1ccc2[nH]c3c(c2c1)CCNC31CCC(O)(c2ccccc2)C(CN(C)C)C1 (centres unmarked) [Example 17, 1,1-(2-(Dimethylaminomethyl)-3-hydroxy-3-phenyl-pentamethylene)-3,4-dihydro-6-methoxy-1H-2,9-diazafluorene citrate] | 57 | –
12 | COc1ccc2[nH]c3c(c2c1)CCOC31CCC(O)(c2ccc(SC)cc2)C(CN(C)C)C1 (centres unmarked) [Example 18, 1,1-(2-(Dimethylaminomethyl)-3-hydroxy-3-(4-methylthiophenyl)-pentamethylene)-1,3,4,9-tetrahydro-6-methoxy-pyrano[3,4-b]indole citrate] | – | 41
13 | CSc1ccc(C2(O)CCC3(CC2CN(C)C)OCCc2c3[nH]c3ccccc23)cc1 (centres unmarked) [Example 20, 1,1-(2-(Dimethylaminomethyl)-3-hydroxy-3-(4-methylthiophenyl)-pentamethylene)-1,3,4,9-tetrahydro-pyrano[3,4-b]indole citrate] | 58 | –
14 | COc1ccc2[nH]c3c(c2c1)CCNC31CCC(O)(c2cccc(F)c2)C(CN(C)C)C1 (centres unmarked) [Example 21, 1,1-(2-(Dimethylaminomethyl)-3-hydroxy-3-(3-fluorophenyl)-pentamethylene)-3,4-dihydro-6-methoxy-1H-2,9-diazafluorene citrate] | 57 | 44
15 | COc1ccc2[nH]c3c(c2c1)CCNC31CCC(O)(c2ccc(C(F)(F)F)cc2)C(CN(C)C)C1 (centres unmarked) [Example 22, 1,1-(2-(Dimethylaminomethyl)-3-hydroxy-3-(4-trifluoromethylphenyl)-pentamethylene)-3,4-dihydro-6-methoxy-1H-2,9-diazafluorene citrate] | 47 | –
16 | CSc1ccc(C2(O)CCC3(CC2CN(C)C)SCCc2c3[nH]c3ccccc23)cc1 (centres unmarked) [Example 23, 1,1-(2-(Dimethylaminomethyl)-3-hydroxy-3-(4-methylthiophenyl)-pentamethylene)-1,3,4,9-tetrahydro-2-thia-9-aza-fluorene sesquicitrate] | 50 | –
17 | Cc1ccccc1C1(O)CCC2(CC1CN(C)C)SCCc1c2[nH]c2ccccc12 (centres unmarked) [Example 24, 1,1-(2-(Dimethylaminomethyl)-3-hydroxy-3-(2-methylphenyl)-pentamethylene)-1,3,4,9-tetrahydro-2-thia-9-aza-fluorene citrate] | 75 | 42
18 | CSc1ccc(C2(O)CCC3(CC2CN(C)C)NCCc2c3[nH]c3ccccc23)cc1 (centres unmarked) [Example 26, 1,1-(2-(Dimethylaminomethyl)-3-hydroxy-3-(4-methylthiophenyl)-pentamethylene)-3,4-dihydro-1H-2,9-diazafluorene citrate] | – | 40
19 | CN(C)CC1CC2(CCC1(O)c1ccc(C(F)(F)F)cc1)OCCc1c2sc2ccccc12 (centres unmarked) [Example 29, 1,1-(2-(Dimethylaminomethyl)-3-hydroxy-3-(4-trifluoromethylphenyl)-pentamethylene)-1,3,4,9-tetrahydro-pyrano[3,4-b]benzothiophene citrate] | 47 | 35
20 | CSc1ccc(C2(O)CCC3(CC2CN(C)C)OCCc2c3oc3ccccc23)cc1 (centres unmarked) [Example 30, 1,1-(2-(dimethylaminomethyl)-3-hydroxy-3-(4-methylthiophenyl)-pentamethylene)-1,3,4,9-tetrahydro-pyrano[3,4-b]benzofuran citrate] | 83 | 37
21 | CSc1ccc(C2(O)CCC3(CC2CN(C)C)OCCc2c3sc3ccccc23)cc1 (centres unmarked) [Example 31, 1,1-(2-(dimethylaminomethyl)-3-hydroxy-3-(4-methylthiophenyl)-pentamethylene)-1,3,4,9-tetrahydro-pyrano[3,4-b]benzothiophene citrate] | 82 | 60
22 | Cc1ccccc1C1(O)CCC2(CC1CN(C)C)NCCc1c2[nH]c2cc(F)ccc12 (centres unmarked) [Example 32, 1,1-(2-(Dimethylaminomethyl)-3-hydroxy-3-(2-methylphenyl)-pentamethylene)-7-fluoro-3,4-dihydro-1H-2,9-diazafluorene citrate] | 75 | 38
23 | CN(C)CC1CC2(CCC1(O)c1ccc(C(F)(F)F)cc1)NCCc1c2[nH]c2cc(F)ccc12 (centres unmarked) [Example 33, 1,1-(2-(Dimethylaminomethyl)-3-hydroxy-3-(4-trifluoromethylphenyl)-pentamethylene)-7-fluoro-3,4-dihydro-1H-2,9-diazafluorene citrate] | 78 | 68
24 | CN(C)CC1CC2(CCC1(O)c1ccccc1)NCCc1c2[nH]c2cc(F)ccc12 (centres unmarked) [Example 35, 1,1-(2-(Dimethylaminomethyl)-3-hydroxy-3-phenyl-pentamethylene)-7-fluoro-3,4-dihydro-1H-2,9-diazafluorene dicitrate] | 67 | –
